# Measurements: patent publication US20170368089A1, “COMPOSITION FOR PREVENTING OR TREATING COLITIS” (UNIVERSITY-INDUSTRY COOPERATION GROUP OF KYUNG HEE …, priority 2012, published 2017)
# Key:
# IL-6 [1] = assay: IL-6 expression in colon tissue (ELISA), TNBS acute colitis, third experiment; assay type: in vivo, male mice (C57BL/6); conditions: Table 12; TNBS-treated mice, 10 mg/kg orally, 3 days
# Protocol: (§1) Meanwhile, 0.1 ml of normal saline solution was orally administered to the normal group. Since then, from the next day, the sample dissolved in normal saline solution was orally administered in the volume that was decided in advance one time a day for 3 days. At the next day after completing the sample administration, the experimental animals were suffocated to death with carbon dioxide, and the colon from appendix to the region just before the anus was removed from the colon region. At this time, as a medicine sample, the experiments using the butanol-soluble fraction of the Anemarrhena asphodeloides Bunge extract, Mangiferin, and a combined extract were separately performed at a distance of time, respectively, and the effects of the medicine samples on preventing or treating colitis were reasonably analyzed based on the group supplied with normal saline solution instead of a specific medicine in the model animals with acute colitis induced by TNBS for each of the experiments. […] While the supernatant was stored at −80° C., the expression amounts of IL-1 beta, IL-6, and TNF-alpha, which were proinflammatory cytokines, and the expression amount of IL-10, which was anti-inflammatory cytokine, were measured using a 96-well ELISA plate kits (Pierce Biotechology, Inc., Rockford, Ill., USA).
# TNF-alpha = TNF-alpha expression in colon tissue (ELISA), TNBS colitis, first experiment; assay type: in vivo, ICR male mice; conditions: Table 4 (group 1), TNBS-treated mice, 10 mg/kg orally, 3 days
# Protocol: (§2) Among the experimental groups, one group was set as a normal group, and for the experimental animals in other groups, colitis was induced with 2,4,6-trinitrobenzenesulfonic acid (TNBS). In detail, after lightly anesthetizing the experimental animals with ether, 0.1 ml of the solution prepared by mixing […] of 2,4,6-Trinitrobenzene sulfonic acid (NBS) solution with 50% ethanol was injected into the colon through the anus using a syringe having 1 ml volume and oval point, respectively; and then, the syringe was vertically picked up, and then, maintained for 30 seconds to induce the inflammation. Meanwhile, 0.1 ml of normal saline solution was orally administered to the normal group. Since then, from the next day, the sample dissolved in normal saline solution was orally administered in the volume that was decided in advance one time a day for 3 days. At the next day after completing the sample administration, the experimental animals were suffocated to death with carbon dioxide, the colon from appendix to the region just before the anus was removed from the colon region.
# (§3) 250 μl of RIPA butter including protease inhibitor cocktail was added to 100 mg of the colon tissue of experimental animal, and then, the colon tissue was homogenized. Since then, the homogenized colon tissue was centrifuged under the conditions of 4° C. and 13000 rpm for 15 minutes to obtain supernatant. While the supernatant was stored at −80° C., the expression amounts of IL-1 beta, IL-6, and TNF-alpha were measured using a 96-well ELISA plate kits (Pierce Biotechology, Inc., Rockford, Ill., USA).
# IL-6 [2] = assay: IL-6 expression in colon tissue (ELISA), TNBS colitis, second experiment; assay type: in vivo, ICR male mice; conditions: Table 9, extract-based samples, TNBS-treated mice, 10 mg/kg orally, 3 days
# Protocol: as §2, with “At the next day after completing the sample administration, the experimental animals were suffocated to death with carbon dioxide, the colon from appendix to the region just before the anus was removed from the colon region.” left out
# as §3, with “Since then, the homogenized colon tissue was centrifuged under the conditions of 4° C. and 13000 rpm for 15 minutes to obtain supernatant.” left out
# Myeloperoxidase (MPO) = assay: MPO activity of colon tissue, TNBS acute colitis, third experiment; assay type: in vivo, male mice (C57BL/6); conditions: Table 12; TNBS-treated mice, 10 mg/kg orally, 3 days
# Protocol: as §1, with “Since then, the homogenized colon tissue was centrifuged under the conditions of 4° C. and 13000 rpm for 15 minutes, and then,” for “While”, “supernatant thereof” for “supernatant”, “obtained. […] Since then, 100 μl of a stop solution was added to stop the reaction, and then, the absorbance was measured” for “stored”, “450 nm” for “−80° C., the expression amounts of IL-1 beta, IL-6, and TNF-alpha, which were proinflammatory cytokines, and the expression amount of IL-10, which was anti-inflammatory cytokine, were measured”, “an” for “a 96-well”, “reader.” for “plate kits (Pierce Biotechology, Inc., Rockford, Ill., USA).”
# IL-1 beta = IL-1 beta expression in colon tissue (ELISA), TNBS colitis, second experiment; assay type: in vivo, ICR male mice; conditions: Table 9, extract-based samples, TNBS-treated mice, 10 mg/kg orally, 3 days
# Protocol: as §2, with “At the next day after completing the sample administration, the experimental animals were suffocated to death with carbon dioxide, the colon from appendix to the region just before the anus was removed from the colon region.” left out
# as §3, with “Since then, the homogenized colon tissue was centrifuged under the conditions of 4° C. and 13000 rpm for 15 minutes to obtain supernatant.” left out
smiles,measurement,setting,value
"Nc1ccc(O)c(C(=O)O)c1 [mesalazine, Mesalazine]",IL-6 (Percentage to group supplied with normal saline solution after treating TNBS),IL-6 [1],26.6%
same,TNF-alpha conc.,TNF-alpha,26.1 ± 8.8 pg/mg
same,IL-6 conc.,IL-6 [2],1.32 ± 0.11 pg/mg
same,MPO activity (Percentage to group supplied with normal saline solution after treating TNBS),Myeloperoxidase (MPO),47.8%
same,IL-1 beta conc.,IL-1 beta,16.30 ± 3.38 pg/mg
